Results published in ChEMBL document CHEMBL5131511, “Design of artificial α-helical peptides targeting both gp41 deep pocket and subpocket as potent HIV-1 fusion inhibitors” (Eur J Med Chem, 2022).
Activity calls are given as the source filed them. No cut-off for these calls is given here. Where a SMILES comes first, the peptide text is derived from it. [ ]: non-standard residue; d: D form. The star is where a group is joined. O(cholesteryl) = CC(C)CCC[C@@H](C)[C@H]1CC[C@H]2[C@@H]3CC=C4C[C@@H](O*)CC[C@]4(C)[C@H]3CC[C@]12C; PEG24 = NCCOCCOCCOCCOCCOCCOCCOCCOCCOCCOCCOCCOCCOCCOCCOCCOCCOCCOCCOCCOCCOCCOCCOCCOCCC(=O)O; PEG12 = NCCOCCOCCOCCOCCOCCOCCOCCOCCOCCOCCOCCOCCC(=O)O

Columns and labels:
[1] = test system: Human immunodeficiency virus 1; assay: Antiviral activity against HIV-1 IIIB assessed as inhibition of viral replication measured after 4 days by ELISA; assay type: functional, organism-based; conditions: Human immunodeficiency virus 1, IIIB, 96 h
[2] = test system: Human immunodeficiency virus 1; assay: Antiviral activity against HIV-1 IIIB (B, X4) assessed as inhibition of viral replication measured after 4 days by ELISA; assay type: functional, organism-based; conditions: Human immunodeficiency virus 1, IIIB (B, X4), 96 h
[3] = test system: Human immunodeficiency virus 1; assay: Binding affinity to HIV1 gp41 NHR target surrogate T21 assessed as binding constant, K by isothermal titration calorimetry
[4] = Alpha-helicity of compound in PBS buffer at pH 7.4 at 10 uM incubated for 30 mins by CD spectroscopy relative to control; assay type: physicochemical; conditions: pH 7.4, 0.5 h
[5] = test system: Human immunodeficiency virus 1; assay: Binding affinity to HIV1 gp41 NHR target surrogate T21 assessed as melting temperature at 10 uM incubated for 30 mins by CD spectroscopy
[6] = test system: Human immunodeficiency virus 1; assay: Binding affinity to HIV1 gp41 NHR target surrogate T21 assessed as alpha-helicity at 10 uM incubated for 30 mins by CD spectroscopy (reference value: 66 %)
[7] = test system: Human immunodeficiency virus 1; assay: Binding affinity to HIV1 gp41 NHR target surrogate T21 at 50 uM incubated for 30 mins by N-PAGE analysis
[8] = test system: Human immunodeficiency virus 1; assay: Binding affinity to HIV1 gp41 NHR target surrogate N36 assessed as alpha-helicity at 10 uM incubated for 30 mins by CD spectroscopy (reference value: 26 %)
[9] = test system: Human immunodeficiency virus 1; assay: Binding affinity to HIV1 gp41 NHR target surrogate N36 assessed as melting temperature at 10 uM incubated for 30 mins by CD spectroscopy
[10] = Selectivity ratio of EC50 for antiviral activity against T20-resistant HIV-1 V38E/N42S to EC50 for antiviral activity against T20-sensitive HIV-1 D36G; assay type: functional
[11] = Selectivity ratio of EC50 for antiviral activity against T20-resistant HIV-1 V38A/N42T to EC50 for antiviral activity against T20-sensitive HIV-1 D36G; assay type: functional
[12] = test system: Human immunodeficiency virus 1; assay: Antiviral activity against T20-resistant HIV-1 V38A/N42T assessed as inhibition of viral replication measured after 4 days by ELISA; assay type: functional, organism-based
[13] = test system: Human immunodeficiency virus 1; assay: Antiviral activity against T20-sensitive HIV-1 D36G assessed as inhibition of viral replication measured after 4 days by ELISA; assay type: functional, organism-based
[14] = test system: Human immunodeficiency virus 1; assay: Antiviral activity against T20-resistant HIV-1 V38E/N42S assessed as inhibition of viral replication measured after 4 days by ELISA; assay type: functional, organism-based
[15] = test system: Human immunodeficiency virus 1; assay: Binding affinity to HIV1 gp41 NHR target surrogate T21 assessed as sedimentation coefficient incubated for 30 mins measured for 0.16 to 7 hrs by Sedimentation velocity analysis; conditions: time 0.56-7.5 hrs
[16] = Cytotoxicity against human CEMx174 5.25M7 cells upto 10 uM incubated for 48 hrs by CCK-8 assay; assay type: toxicity, cell-based; conditions: cemx174 5.25m7, 48 h
MT2 = assay: Cytotoxicity against human MT2 cells upto 10 uM incubated for 48 hrs by CCK-8 assay; assay type: toxicity, cell-based; conditions: mt2, 48 h
[17] = test system: Human immunodeficiency virus 1; assay: Inhibition of HIV-1 replication assessed as inhibition of gp41 six-helix bundle formation between T21 and CP32 incubated for 30 mins followed by CP32 addition measured after 30 mins by N-PAGE analysis; assay type: functional; conditions: dose <= 120.0 µM, time 1.0 hrs, DDE = dose-dependent effect

Row | EC50 [2] [nM] | Compound | EC50 [1] [nM] | Activity [4] [%] | Tm [5] [°C] | Activity [6] [%] | Activity [8] [%] | Tm [9] [°C] | Ratio EC50 [10] | Ratio EC50 [11] | EC50 [12] [nM] | EC50 [13] [nM] | EC50 [14] [nM] | other results
1 |  | CC[C@H](C)[C@H](NC(=O)[C@H](CO)NC(=O)[C@H](CCC(=O)O)NC(=O)[C@H](CCC(=O)O)NC(=O)[C@H](CCC(N)=O)NC(C)=O)C(=O)N[C@@H](CCCCN)C(=O)N[C@@H](CCCCN)C(=O)N[C@@H](Cc1c[nH]c2ccccc12)C(=O)N[C@@H](CCC(=O)O)C(=O)N[C@@H](CCC(=O)O)C(=O)N[C@@H](Cc1c[nH]c2ccccc12)C(=O)N[C@@H](CO)C(=O)N[C@@H](CCCCN)C(=O)N[C@@H](CCCCN)C(=O)N[C@H](C(=O)N[C@@H](CCC(=O)O)C(=O)N[C@@H](CCC(=O)O)C(=O)N[C@@H](CC(C)C)C(=O)N[C@H](C(=O)N[C@@H](CCCCN)C(=O)N[C@@H](CCCCN)C(=O)N[C@@H](CO)C(=O)N[C@@H](CCC(=O)O)C(=O)N[C@@H](CCC(=O)O)C(=O)N[C@@H](CC(C)C)C(=O)N[C@H](C(=O)N[C@@H](CCCCN)C(=O)N[C@@H](CCCCN)C(=O)N[C@H](C(=O)N[C@@H](CCC(=O)O)C(=O)N[C@@H](CCC(=O)O)C(=O)N[C@@H](CCC(N)=O)C(=O)N[C@H](C(=O)N[C@@H](CCCCN)C(=O)N[C@@H](CCCCN)C(=O)N[C@@H](CS)C(=O)O[C@H]1CC[C@@]2(C)C(=CC[C@H]3[C@@H]4CC[C@H]([C@H](C)CCCC(C)C)[C@@]4(C)CC[C@@H]32)C1)[C@@H](C)CC)[C@@H](C)CC)[C@@H](C)CC)[C@@H](C)CC)[C@@H](C)CC (Ac-QEESIKKWEEWSKKIEELIKKSEELIKKIEEQIKKC-{O(cholesteryl)}) | > 500 |  |  |  |  |  |  |  |  |  |  | 
2 | 65.7 | Ac-QEENIKKWEEWDKKIEELIKKSEELIKKIEEQIKK-NH2 |  |  |  |  |  |  |  |  |  |  |  | 
3 |  | CC[C@H](C)[C@H](NC(=O)[C@H](CCC(N)=O)NC(=O)[C@H](CCC(=O)O)NC(=O)[C@H](CCC(=O)O)NC(=O)[C@@H](NC(=O)[C@H](CCCCN)NC(=O)[C@H](CCCCN)NC(=O)[C@@H](NC(=O)[C@H](CC(C)C)NC(=O)[C@H](CCC(=O)O)NC(=O)[C@H](CCC(=O)O)NC(=O)[C@H](CO)NC(=O)[C@H](CCCCN)NC(=O)[C@H](CCCCN)NC(=O)[C@@H](NC(=O)[C@H](CC(C)C)NC(=O)[C@H](CCC(=O)O)NC(=O)[C@H](CCC(=O)O)NC(=O)[C@@H](NC(=O)[C@H](CCCCN)NC(=O)[C@H](CCCCN)NC(=O)[C@H](CO)NC(=O)[C@H](Cc1c[nH]c2ccccc12)NC(=O)[C@H](CCC(=O)O)NC(=O)[C@H](CCC(=O)O)NC(=O)[C@H](Cc1c[nH]c2ccccc12)NC(=O)[C@H](CCCCN)NC(=O)[C@H](CCCCN)NC(=O)[C@@H](NC(=O)[C@H](CO)NC(=O)[C@H](CCC(=O)O)NC(=O)[C@H](CCC(=O)O)NC(=O)[C@H](CCC(N)=O)NC(C)=O)[C@@H](C)CC)[C@@H](C)CC)[C@@H](C)CC)[C@@H](C)CC)[C@@H](C)CC)C(=O)N[C@@H](CCCCN)C(=O)N[C@@H](CCCCN)C(=O)NCCOCCOCCOCCOCCOCCOCCOCCOCCOCCOCCOCCOCCC(=O)N[C@@H](CS)C(=O)O[C@H]1CC[C@@]2(C)C(=CC[C@H]3[C@@H]4CC[C@H]([C@H](C)CCCC(C)C)[C@@]4(C)CC[C@@H]32)C1 (Ac-QEESIKKWEEWSKKIEELIKKSEELIKKIEEQIKK[PEG12]C-{O(cholesteryl)}) | 5.22 |  |  |  |  |  |  |  |  |  |  | 
4 | 64.5 | Ac-QEESIKKWEEWSKKIEELIKKSEELIKKIEEQIKK-NH2 |  | 63 | 74 | 100 | 92 | 52 |  |  |  |  |  | K [3]: 1.59 10^5/M; Activity [7]: Active
5 |  | enfuvirtide | 8.26 |  |  |  |  |  | >24 | 17 | 696 | 41.1 | > 1000 | 
6 |  | CC[C@H](C)[C@H](NC(=O)[C@H](CCC(N)=O)NC(=O)[C@H](CCC(=O)O)NC(=O)[C@H](CCC(=O)O)NC(=O)[C@@H](NC(=O)[C@H](CCCCN)NC(=O)[C@H](CCCCN)NC(=O)[C@@H](NC(=O)[C@H](CC(C)C)NC(=O)[C@H](CCC(=O)O)NC(=O)[C@H](CCC(=O)O)NC(=O)[C@H](CO)NC(=O)[C@H](CCCCN)NC(=O)[C@H](CCCCN)NC(=O)[C@@H](NC(=O)[C@H](CC(C)C)NC(=O)[C@H](CCC(=O)O)NC(=O)[C@H](CCC(=O)O)NC(=O)[C@@H](NC(=O)[C@H](CCCCN)NC(=O)[C@H](CCCCN)NC(=O)[C@H](CO)NC(=O)[C@H](Cc1c[nH]c2ccccc12)NC(=O)[C@H](CCC(=O)O)NC(=O)[C@H](CCC(=O)O)NC(=O)[C@H](Cc1c[nH]c2ccccc12)NC(=O)[C@H](CCCCN)NC(=O)[C@H](CCCCN)NC(=O)[C@@H](NC(=O)[C@H](CO)NC(=O)[C@H](CCC(=O)O)NC(=O)[C@H](CCC(=O)O)NC(=O)[C@H](CCC(N)=O)NC(C)=O)[C@@H](C)CC)[C@@H](C)CC)[C@@H](C)CC)[C@@H](C)CC)[C@@H](C)CC)C(=O)N[C@@H](CCCCN)C(=O)N[C@@H](CCCCN)C(=O)NCCOCCOCCOCCOCCOCCOCCOCCOCCOCCOCCOCCOCCOCCOCCOCCOCCOCCOCCOCCOCCOCCOCCOCCOCCC(=O)N[C@@H](CS)C(=O)O[C@H]1CC[C@@]2(C)C(=CC[C@H]3[C@@H]4CC[C@H]([C@H](C)CCCC(C)C)[C@@]4(C)CC[C@@H]32)C1 (Ac-QEESIKKWEEWSKKIEELIKKSEELIKKIEEQIKK[PEG24]C-{O(cholesteryl)}) | 5.21 | 56 | 68 | 94 | 81 | 50 | 3.1 | 1.5 | 2.38 | 1.62 | 5.07 | S20,w [15]: 2.43 S; Activity [16]: Non-Toxic; Activity (MT2): Non-Toxic; inhibition [17]: Dde
